According to ChEMBL document CHEMBL1146869 (Bioorg Med Chem Lett, 2006):
≈ marks a conversion by molar mass, not a printed value.

Assays:
[1] = target: T1, Prostaglandin G/H synthase 1 (Ovis aries, UniProt P05979); test: Inhibition of COX1; design: species or system Homo sapiens
T1 sequence (P05979 whole entry): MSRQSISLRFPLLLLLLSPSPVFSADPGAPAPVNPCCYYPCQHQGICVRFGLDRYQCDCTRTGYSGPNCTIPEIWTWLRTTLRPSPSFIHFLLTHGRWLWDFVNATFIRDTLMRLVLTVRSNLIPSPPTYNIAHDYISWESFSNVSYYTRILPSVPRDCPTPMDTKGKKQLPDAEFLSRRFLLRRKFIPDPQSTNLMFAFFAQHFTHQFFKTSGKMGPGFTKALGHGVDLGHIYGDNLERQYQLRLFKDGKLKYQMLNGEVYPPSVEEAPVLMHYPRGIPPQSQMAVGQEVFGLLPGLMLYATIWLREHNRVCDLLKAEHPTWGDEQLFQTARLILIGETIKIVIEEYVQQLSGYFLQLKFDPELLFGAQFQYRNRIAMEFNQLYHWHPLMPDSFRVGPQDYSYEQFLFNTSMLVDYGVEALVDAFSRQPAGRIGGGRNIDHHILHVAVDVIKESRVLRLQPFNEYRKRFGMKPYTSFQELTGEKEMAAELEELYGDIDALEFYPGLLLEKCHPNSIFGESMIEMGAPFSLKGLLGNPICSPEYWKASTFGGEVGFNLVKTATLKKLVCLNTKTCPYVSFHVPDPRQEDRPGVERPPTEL

[2] = target: T2, Prostaglandin G/H synthase 2 (Homo sapiens, UniProt P35354)
T2 sequence (P35354 whole entry): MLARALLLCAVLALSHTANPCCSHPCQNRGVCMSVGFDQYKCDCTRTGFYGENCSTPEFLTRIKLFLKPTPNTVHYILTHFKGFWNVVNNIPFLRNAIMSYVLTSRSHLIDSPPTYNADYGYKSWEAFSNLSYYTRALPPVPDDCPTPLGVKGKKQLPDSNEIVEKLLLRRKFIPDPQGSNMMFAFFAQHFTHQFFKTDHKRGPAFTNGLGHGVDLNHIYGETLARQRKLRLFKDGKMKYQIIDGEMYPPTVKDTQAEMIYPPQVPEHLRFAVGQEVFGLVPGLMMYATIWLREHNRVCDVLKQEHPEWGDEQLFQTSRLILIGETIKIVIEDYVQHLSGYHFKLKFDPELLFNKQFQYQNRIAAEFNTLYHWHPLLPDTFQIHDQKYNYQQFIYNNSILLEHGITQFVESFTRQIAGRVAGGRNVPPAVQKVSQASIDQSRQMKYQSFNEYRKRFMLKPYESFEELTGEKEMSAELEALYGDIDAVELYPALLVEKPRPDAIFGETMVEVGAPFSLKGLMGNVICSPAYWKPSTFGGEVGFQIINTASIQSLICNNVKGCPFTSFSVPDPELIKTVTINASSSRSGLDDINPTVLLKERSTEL

Rattus norvegicus [3] = test: Anti-inflammatory activity against carrageenan-induced paw edema in Sprague-Dawley rat at 3 mg/kg, iv after 3 hrs; assay type: functional, organism-based; design: dose 3 mg/kg, route intravenous
Rattus norvegicus [4] = test: Anti-inflammatory activity against carrageenan-induced paw edema in Sprague-Dawley rat at 3 mg/kg, iv after 5 hrs; assay type: functional, organism-based; design: dose 3 mg/kg, route intravenous
Rattus norvegicus [5] = test: Gastric toxicity in rat at 20 mg/kg, iv; assay type: organism-based; design: dose 20 mg/kg, route intravenous; conditions: in vivo
[6] = Aqueous solubility of the compound; assay type: physicochemical; conditions: water
Rattus norvegicus [7] = test: Gastric toxicity in rat at 40 mg/kg, iv; assay type: organism-based; design: dose 40 mg/kg, route intravenous; conditions: in vivo

SMILES | IC50 [1] [nM] | IC50 [2] [nM] | inhibition in vivo at 3 mg/kg (Rattus norvegicus [3]) [%] | inhibition in vivo at 3 mg/kg (Rattus norvegicus [4]) [%] | Activity (Rattus norvegicus [5]) | solubility [6] [mg/mL] | Activity (Rattus norvegicus [7])
O=C1OCC(c2ccc(-c3nn[nH]n3)cc2)=C1c1ccccc1 | 3.8 | 1.8 | 34.1 | 28 | Not Active | 125 (≈ 411 mM) | 
O=C([O-])Cc1ccccc1Nc1c(Cl)cccc1Cl.[Na+] [DICLOFENAC SODIUM] |  |  |  |  | 22.8 |  | 51.5
CCC(=O)[N-]S(=O)(=O)c1ccc(-c2c(-c3ccccc3)noc2C)cc1.[Na+] [PARECOXIB SODIUM] |  |  | 62.8 | 42 |  |  | Not Active
Cc1ccc(-c2cc(C(F)(F)F)nn2-c2ccc(-c3nnn[nH]3)cc2)cc1 | 4.1 | 1.9 | 40.2 | 34.7 | Not Active | 100 (≈ 270 mM) | 
